Laboratory results reported in US11007270B2, “Polymer-semaxanib moiety conjugates” (Nektar Therapeutics, priority 2010, dated 2021).

Columns and labels:
c-Kit = c-Kit (Homo sapiens, UniProt P10721); experiment: c-Kit tyrosine kinase inhibition, Caliper screening (fluorescent substrate phosphorylation, electrophoretic separation); assay type: biochemical; conditions: for IC50: averages of replicate wells; for c-Kit Fold: fold of IC50 relative to sunitinib
VEGFR-2 = VEGFR-2 (Homo sapiens, UniProt P35968); experiment: VEGFR-2 kinase inhibition, Caliper screening (fluorescent substrate phosphorylation, electrophoretic separation); conditions: for VEGFR-2 Fold: fold of IC50 relative to sunitinib
Sequence of VEGFR-2 (P35968 20-1356, species assumed): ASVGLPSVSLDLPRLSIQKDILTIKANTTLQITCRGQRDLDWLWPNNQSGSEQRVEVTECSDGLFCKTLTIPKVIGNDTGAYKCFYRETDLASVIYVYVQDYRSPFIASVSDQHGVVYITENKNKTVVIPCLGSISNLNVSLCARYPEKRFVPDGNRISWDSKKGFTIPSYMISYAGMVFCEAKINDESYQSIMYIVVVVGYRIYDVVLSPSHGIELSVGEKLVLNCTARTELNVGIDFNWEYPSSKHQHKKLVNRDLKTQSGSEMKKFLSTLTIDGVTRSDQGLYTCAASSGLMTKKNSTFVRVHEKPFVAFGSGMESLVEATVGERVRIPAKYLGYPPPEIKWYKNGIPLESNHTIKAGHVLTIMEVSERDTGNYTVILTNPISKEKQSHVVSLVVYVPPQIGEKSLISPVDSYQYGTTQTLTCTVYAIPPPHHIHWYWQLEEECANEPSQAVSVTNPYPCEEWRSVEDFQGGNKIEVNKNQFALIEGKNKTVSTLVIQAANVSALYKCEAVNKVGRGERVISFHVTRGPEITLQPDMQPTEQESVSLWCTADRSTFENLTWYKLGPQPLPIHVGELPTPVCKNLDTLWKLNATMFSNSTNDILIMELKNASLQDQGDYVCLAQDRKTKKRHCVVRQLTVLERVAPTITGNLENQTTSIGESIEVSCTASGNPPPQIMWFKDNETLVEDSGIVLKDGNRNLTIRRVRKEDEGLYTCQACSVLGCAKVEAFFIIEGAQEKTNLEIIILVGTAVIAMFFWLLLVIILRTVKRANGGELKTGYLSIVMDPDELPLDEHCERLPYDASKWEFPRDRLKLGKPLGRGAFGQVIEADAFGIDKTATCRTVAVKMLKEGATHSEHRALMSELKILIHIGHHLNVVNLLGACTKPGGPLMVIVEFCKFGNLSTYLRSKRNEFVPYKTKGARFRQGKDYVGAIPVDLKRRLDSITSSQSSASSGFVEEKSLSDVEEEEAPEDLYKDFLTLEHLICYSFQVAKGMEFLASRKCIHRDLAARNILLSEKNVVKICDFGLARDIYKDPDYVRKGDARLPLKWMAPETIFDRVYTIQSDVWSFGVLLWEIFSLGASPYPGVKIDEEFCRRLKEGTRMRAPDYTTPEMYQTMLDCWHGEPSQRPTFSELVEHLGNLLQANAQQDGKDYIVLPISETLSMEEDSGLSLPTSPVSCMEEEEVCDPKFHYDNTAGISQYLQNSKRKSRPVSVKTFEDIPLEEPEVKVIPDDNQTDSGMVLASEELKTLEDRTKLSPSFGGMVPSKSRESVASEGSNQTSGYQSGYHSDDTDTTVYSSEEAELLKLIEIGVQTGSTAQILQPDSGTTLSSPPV

RET = RET (Homo sapiens, UniProt P07949); experiment: RET kinase inhibition, Caliper screening (fluorescent substrate phosphorylation, electrophoretic separation); conditions: for RET Fold: fold of IC50 relative to sunitinib
Sequence of RET (P07949 29-1114, species assumed): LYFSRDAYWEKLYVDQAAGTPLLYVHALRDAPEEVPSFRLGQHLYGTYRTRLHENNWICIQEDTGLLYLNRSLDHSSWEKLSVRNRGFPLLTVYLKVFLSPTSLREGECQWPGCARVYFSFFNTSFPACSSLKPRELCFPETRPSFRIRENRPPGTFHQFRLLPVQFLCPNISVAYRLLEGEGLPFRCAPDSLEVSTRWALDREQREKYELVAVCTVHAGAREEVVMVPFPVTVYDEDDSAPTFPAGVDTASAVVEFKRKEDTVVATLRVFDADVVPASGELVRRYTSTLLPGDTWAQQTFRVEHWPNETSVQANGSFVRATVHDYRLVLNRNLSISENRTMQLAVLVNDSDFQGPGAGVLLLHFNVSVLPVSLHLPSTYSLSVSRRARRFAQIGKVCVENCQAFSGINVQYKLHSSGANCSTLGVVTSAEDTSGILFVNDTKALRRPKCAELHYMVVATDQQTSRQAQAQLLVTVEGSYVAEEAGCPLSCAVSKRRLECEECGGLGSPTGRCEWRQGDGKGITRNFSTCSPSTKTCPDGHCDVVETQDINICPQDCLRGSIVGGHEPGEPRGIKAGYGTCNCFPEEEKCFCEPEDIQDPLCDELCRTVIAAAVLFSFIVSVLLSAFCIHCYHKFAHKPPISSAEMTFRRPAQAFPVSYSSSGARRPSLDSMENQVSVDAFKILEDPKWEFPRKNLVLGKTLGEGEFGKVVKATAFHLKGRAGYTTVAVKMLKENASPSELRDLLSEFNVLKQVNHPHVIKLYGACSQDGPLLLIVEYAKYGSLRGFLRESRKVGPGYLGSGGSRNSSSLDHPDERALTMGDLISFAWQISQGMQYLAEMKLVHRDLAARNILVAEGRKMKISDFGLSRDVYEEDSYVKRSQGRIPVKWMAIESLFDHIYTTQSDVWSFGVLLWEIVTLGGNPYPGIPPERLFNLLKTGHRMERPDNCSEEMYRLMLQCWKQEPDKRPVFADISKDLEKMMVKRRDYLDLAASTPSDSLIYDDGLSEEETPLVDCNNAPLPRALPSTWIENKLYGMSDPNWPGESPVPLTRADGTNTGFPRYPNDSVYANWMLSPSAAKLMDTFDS

[1] = concentration 1.0E−05 (unit not given)
[2] = concentration 1.0E−06 (unit not given)
[3] = concentration 1.0E−07 (unit not given)
[4] = concentration 1.0E−08 (unit not given)
[5] = concentration 1.0E−09 (unit not given)
[6] = concentration 1.0E−10 (unit not given)
[7] = concentration 3.0E−05 (unit not given)
[8] = concentration 3.0E−06 (unit not given)
[9] = concentration 3.0E−07 (unit not given)
[10] = concentration 3.0E−08 (unit not given)
[11] = concentration 3.0E−09 (unit not given)
[12] = concentration 3.0E−10 (unit not given)

Sequence of c-Kit (P10721 26-976): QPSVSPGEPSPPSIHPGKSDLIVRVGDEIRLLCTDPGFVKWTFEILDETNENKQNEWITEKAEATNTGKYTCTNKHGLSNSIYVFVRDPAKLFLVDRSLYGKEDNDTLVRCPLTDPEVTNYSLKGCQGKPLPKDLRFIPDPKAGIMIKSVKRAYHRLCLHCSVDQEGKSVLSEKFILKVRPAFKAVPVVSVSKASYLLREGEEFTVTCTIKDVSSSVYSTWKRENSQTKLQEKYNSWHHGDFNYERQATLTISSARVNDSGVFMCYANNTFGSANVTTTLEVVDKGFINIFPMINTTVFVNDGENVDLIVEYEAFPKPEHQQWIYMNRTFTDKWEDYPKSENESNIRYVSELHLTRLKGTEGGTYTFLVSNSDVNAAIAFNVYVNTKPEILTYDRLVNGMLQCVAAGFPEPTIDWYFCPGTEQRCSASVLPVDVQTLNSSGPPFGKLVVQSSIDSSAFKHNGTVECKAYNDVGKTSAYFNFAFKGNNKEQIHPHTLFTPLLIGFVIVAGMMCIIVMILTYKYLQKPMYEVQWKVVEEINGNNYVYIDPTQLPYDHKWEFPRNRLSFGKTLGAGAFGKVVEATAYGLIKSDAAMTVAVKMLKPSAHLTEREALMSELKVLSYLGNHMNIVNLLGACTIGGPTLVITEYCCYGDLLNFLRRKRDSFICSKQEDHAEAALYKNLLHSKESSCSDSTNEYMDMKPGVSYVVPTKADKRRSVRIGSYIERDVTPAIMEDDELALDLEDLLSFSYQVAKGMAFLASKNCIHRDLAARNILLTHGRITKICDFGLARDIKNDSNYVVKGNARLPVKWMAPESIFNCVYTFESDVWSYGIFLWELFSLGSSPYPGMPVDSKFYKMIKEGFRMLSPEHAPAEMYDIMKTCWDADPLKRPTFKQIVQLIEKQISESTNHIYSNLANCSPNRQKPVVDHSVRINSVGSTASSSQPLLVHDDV

## COCCOCCOCCNC(=O)c1c(C)[nH]c(/C=C2\C(=O)Nc3ccc(F)cc32)c1C [mPEG3-semaxanib, (Z)-5-((5-fluoro-2-oxoindolin-3-ylidene)methyl)-2,4-dimethyl-1H-pyrrole-3-mPEG3-amide]
c-Kit
  IC50: 120 nM
  c-Kit Fold: 1.60
c-Kit; [1]
  c-Kit AVG % Activity at Specific Concentration: −1%
c-Kit; [2]
  c-Kit AVG % Activity at Specific Concentration: 2%
c-Kit; [3]
  c-Kit AVG % Activity at Specific Concentration: 58%
c-Kit; [4]
  c-Kit AVG % Activity at Specific Concentration: 97%
c-Kit; [5]
  c-Kit AVG % Activity at Specific Concentration: 104%
c-Kit; [6]
  c-Kit AVG % Activity at Specific Concentration: 100%
c-Kit; [7]
  c-Kit AVG % Activity at Specific Concentration: −1%
c-Kit; [8]
  c-Kit AVG % Activity at Specific Concentration: 1%
c-Kit; [9]
  c-Kit AVG % Activity at Specific Concentration: 16%
c-Kit; [10]
  c-Kit AVG % Activity at Specific Concentration: 88%
c-Kit; [11]
  c-Kit AVG % Activity at Specific Concentration: 98%
c-Kit; [12]
  c-Kit AVG % Activity at Specific Concentration: 102%
VEGFR-2
  IC50: 110 nM
  VEGFR-2 Fold: 2.24
VEGFR-2; [1]
  VEGFR-2 AVG % Activity at Specific Concentration: −3%
VEGFR-2; [2]
  VEGFR-2 AVG % Activity at Specific Concentration: 0%
VEGFR-2; [3]
  VEGFR-2 AVG % Activity at Specific Concentration: 47%
VEGFR-2; [4]
  VEGFR-2 AVG % Activity at Specific Concentration: 90%
VEGFR-2; [5]
  VEGFR-2 AVG % Activity at Specific Concentration: 87%
VEGFR-2; [6]
  VEGFR-2 AVG % Activity at Specific Concentration: 93%
VEGFR-2; [7]
  VEGFR-2 AVG % Activity at Specific Concentration: −6%
VEGFR-2; [8]
  VEGFR-2 AVG % Activity at Specific Concentration: −3%
VEGFR-2; [9]
  VEGFR-2 AVG % Activity at Specific Concentration: 16%
VEGFR-2; [10]
  VEGFR-2 AVG % Activity at Specific Concentration: 78%
VEGFR-2; [11]
  VEGFR-2 AVG % Activity at Specific Concentration: 90%
VEGFR-2; [12]
  VEGFR-2 AVG % Activity at Specific Concentration: 93%
RET
  IC50: 230 nM
  RET Fold: 5.35
RET; [1]
  RET AVG % Activity at Specific Concentration: −1%
RET; [2]
  RET AVG % Activity at Specific Concentration: 12%
RET; [3]
  RET AVG % Activity at Specific Concentration: 68%
RET; [4]
  RET AVG % Activity at Specific Concentration: 96%
RET; [5]
  RET AVG % Activity at Specific Concentration: 92%
RET; [6]
  RET AVG % Activity at Specific Concentration: 92%
RET; [7]
  RET AVG % Activity at Specific Concentration: −1%
RET; [8]
  RET AVG % Activity at Specific Concentration: 3%
RET; [9]
  RET AVG % Activity at Specific Concentration: 38%
RET; [10]
  RET AVG % Activity at Specific Concentration: 90%
RET; [11]
  RET AVG % Activity at Specific Concentration: 95%
RET; [12]
  RET AVG % Activity at Specific Concentration: 94%

## COCCOCCOCCOCCOCCOCCOCCOCCNC(=O)c1c(C)[nH]c(/C=C2\C(=O)Nc3ccc(F)cc32)c1C [mPEG8-semaxanib, (Z)-5-((5-fluoro-2-oxoindolin-3-ylidene)methyl)-2,4-dimethyl-1H-pyrrole-3-mPEG8-amide]
c-Kit
  IC50: 300 nM
  c-Kit Fold: 4.10
c-Kit; [1]
  c-Kit AVG % Activity at Specific Concentration: −1%
c-Kit; [2]
  c-Kit AVG % Activity at Specific Concentration: 11%
c-Kit; [3]
  c-Kit AVG % Activity at Specific Concentration: 75%
c-Kit; [4]
  c-Kit AVG % Activity at Specific Concentration: 97%
c-Kit; [5]
  c-Kit AVG % Activity at Specific Concentration: 98%
c-Kit; [6]
  c-Kit AVG % Activity at Specific Concentration: 94%
c-Kit; [7]
  c-Kit AVG % Activity at Specific Concentration: −1%
c-Kit; [8]
  c-Kit AVG % Activity at Specific Concentration: 1%
c-Kit; [9]
  c-Kit AVG % Activity at Specific Concentration: 49%
c-Kit; [10]
  c-Kit AVG % Activity at Specific Concentration: 93%
c-Kit; [11]
  c-Kit AVG % Activity at Specific Concentration: 98%
c-Kit; [12]
  c-Kit AVG % Activity at Specific Concentration: 94%
VEGFR-2
  IC50: 430 nM
  VEGFR-2 Fold: 8.78
VEGFR-2; [1]
  VEGFR-2 AVG % Activity at Specific Concentration: −3%
VEGFR-2; [2]
  VEGFR-2 AVG % Activity at Specific Concentration: 24%
VEGFR-2; [3]
  VEGFR-2 AVG % Activity at Specific Concentration: 73%
VEGFR-2; [4]
  VEGFR-2 AVG % Activity at Specific Concentration: 85%
VEGFR-2; [5]
  VEGFR-2 AVG % Activity at Specific Concentration: 86%
VEGFR-2; [6]
  VEGFR-2 AVG % Activity at Specific Concentration: 86%
VEGFR-2; [7]
  VEGFR-2 AVG % Activity at Specific Concentration: −6%
VEGFR-2; [8]
  VEGFR-2 AVG % Activity at Specific Concentration: 2%
VEGFR-2; [9]
  VEGFR-2 AVG % Activity at Specific Concentration: 50%
VEGFR-2; [10]
  VEGFR-2 AVG % Activity at Specific Concentration: 78%
VEGFR-2; [11]
  VEGFR-2 AVG % Activity at Specific Concentration: 82%
VEGFR-2; [12]
  VEGFR-2 AVG % Activity at Specific Concentration: 84%
RET
  IC50: 990 nM
  RET Fold: 23.02
RET; [1]
  RET AVG % Activity at Specific Concentration: 5%
RET; [2]
  RET AVG % Activity at Specific Concentration: 52%
RET; [3]
  RET AVG % Activity at Specific Concentration: 92%
RET; [4]
  RET AVG % Activity at Specific Concentration: 100%
RET; [5]
  RET AVG % Activity at Specific Concentration: 102%
RET; [6]
  RET AVG % Activity at Specific Concentration: 100%
RET; [7]
  RET AVG % Activity at Specific Concentration: 0%
RET; [8]
  RET AVG % Activity at Specific Concentration: 20%
RET; [9]
  RET AVG % Activity at Specific Concentration: 75%
RET; [10]
  RET AVG % Activity at Specific Concentration: 94%
RET; [11]
  RET AVG % Activity at Specific Concentration: 97%
RET; [12]
  RET AVG % Activity at Specific Concentration: 99%
